Experiments:
Assay in all cases: Fluor de Lys fluorescence deacetylase inhibition assay
Assay type in all cases: biochemical
Conditions in all cases: read-out: 1 (IC50)
HDAC8 = target: T1, HDAC8 (Homo sapiens, UniProt Q9BY41)
T1 construct: enzyme of BPS Bioscience contract assay
T1 sequence (Q9BY41 1-377): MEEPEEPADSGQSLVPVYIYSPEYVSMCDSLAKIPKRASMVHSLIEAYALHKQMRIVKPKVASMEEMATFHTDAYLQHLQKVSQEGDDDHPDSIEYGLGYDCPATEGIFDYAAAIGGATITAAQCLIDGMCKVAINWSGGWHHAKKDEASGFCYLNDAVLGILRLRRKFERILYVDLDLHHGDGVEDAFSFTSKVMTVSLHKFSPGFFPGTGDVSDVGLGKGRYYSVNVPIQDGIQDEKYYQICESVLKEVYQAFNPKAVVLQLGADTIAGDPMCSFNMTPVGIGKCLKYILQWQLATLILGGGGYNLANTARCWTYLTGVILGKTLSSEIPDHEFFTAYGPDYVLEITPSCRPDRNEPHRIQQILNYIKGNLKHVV
Description: Fluor de Lys fluorescence deacetylase inhibition assay on HDAC8

HDAC11 = target: T2, HDAC11 (Homo sapiens, UniProt Q96DB2)
T2 construct: enzyme of BPS Bioscience contract assay
T2 sequence (Q96DB2 1-347): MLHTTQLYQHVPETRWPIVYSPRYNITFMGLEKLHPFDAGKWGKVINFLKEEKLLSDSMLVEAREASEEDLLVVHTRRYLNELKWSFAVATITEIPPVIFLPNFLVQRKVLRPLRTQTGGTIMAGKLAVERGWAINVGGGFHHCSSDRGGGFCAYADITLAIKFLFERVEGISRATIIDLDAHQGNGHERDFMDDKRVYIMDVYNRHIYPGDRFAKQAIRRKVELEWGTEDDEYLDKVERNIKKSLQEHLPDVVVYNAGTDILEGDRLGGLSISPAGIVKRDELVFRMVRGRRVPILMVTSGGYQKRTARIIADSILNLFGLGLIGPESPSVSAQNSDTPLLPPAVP
Description: Fluor de Lys fluorescence deacetylase inhibition assay on HDAC11

HDAC7 = target: T3, HDAC7 (Homo sapiens, UniProt Q8WUI4)
T3 construct: enzyme of BPS Bioscience contract assay
T3 sequence (Q8WUI4 518-952 limits assumed): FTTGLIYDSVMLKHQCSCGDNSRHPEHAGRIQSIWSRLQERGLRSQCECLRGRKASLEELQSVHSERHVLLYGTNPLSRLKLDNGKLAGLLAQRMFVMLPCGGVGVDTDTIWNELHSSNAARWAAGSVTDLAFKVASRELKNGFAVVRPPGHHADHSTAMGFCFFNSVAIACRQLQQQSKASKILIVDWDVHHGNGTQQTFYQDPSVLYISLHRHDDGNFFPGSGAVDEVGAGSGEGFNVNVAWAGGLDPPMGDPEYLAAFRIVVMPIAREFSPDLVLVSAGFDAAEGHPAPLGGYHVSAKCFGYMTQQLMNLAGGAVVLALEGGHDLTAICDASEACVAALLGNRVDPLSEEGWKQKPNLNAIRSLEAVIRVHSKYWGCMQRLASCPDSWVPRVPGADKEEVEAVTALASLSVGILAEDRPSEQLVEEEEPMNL
Description: Fluor de Lys fluorescence deacetylase inhibition assay on HDAC7

HDAC5 = target: T4, HDAC5 (Homo sapiens, UniProt Q9UQL6)
T4 construct: enzyme of BPS Bioscience contract assay
Description: Fluor de Lys fluorescence deacetylase inhibition assay on HDAC5

HDAC1 = target: T5, HDAC1 (Homo sapiens, UniProt Q13547)
T5 construct: enzyme of BPS Bioscience contract assay
Description: Fluor de Lys fluorescence deacetylase inhibition assay on HDAC1

HDAC10 = target: T6, HDAC10 (Homo sapiens, UniProt Q969S8)
T6 construct: enzyme of BPS Bioscience contract assay
T6 sequence (Q969S8 1-669): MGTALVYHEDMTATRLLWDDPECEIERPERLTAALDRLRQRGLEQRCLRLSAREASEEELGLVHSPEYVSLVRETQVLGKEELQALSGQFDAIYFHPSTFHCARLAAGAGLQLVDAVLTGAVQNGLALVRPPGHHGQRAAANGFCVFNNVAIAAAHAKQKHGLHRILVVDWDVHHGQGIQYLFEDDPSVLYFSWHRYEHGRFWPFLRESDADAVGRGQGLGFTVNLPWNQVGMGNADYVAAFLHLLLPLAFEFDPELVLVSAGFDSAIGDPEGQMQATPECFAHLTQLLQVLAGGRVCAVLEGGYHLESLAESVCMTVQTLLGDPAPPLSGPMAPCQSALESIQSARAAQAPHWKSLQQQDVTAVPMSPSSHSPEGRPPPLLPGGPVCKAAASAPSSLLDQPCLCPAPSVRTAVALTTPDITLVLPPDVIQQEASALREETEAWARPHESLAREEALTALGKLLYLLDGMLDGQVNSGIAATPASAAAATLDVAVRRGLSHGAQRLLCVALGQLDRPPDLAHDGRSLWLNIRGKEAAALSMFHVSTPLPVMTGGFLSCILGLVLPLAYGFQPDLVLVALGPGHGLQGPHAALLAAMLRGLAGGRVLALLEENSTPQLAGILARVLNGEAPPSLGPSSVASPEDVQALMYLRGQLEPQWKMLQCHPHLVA
Description: Fluor de Lys fluorescence deacetylase inhibition assay on HDAC10

HDAC6 = target: T7, HDAC6 (Homo sapiens, UniProt Q9UBN7)
T7 construct: enzyme of BPS Bioscience contract assay
T7 sequence (Q9UBN7 1-1215): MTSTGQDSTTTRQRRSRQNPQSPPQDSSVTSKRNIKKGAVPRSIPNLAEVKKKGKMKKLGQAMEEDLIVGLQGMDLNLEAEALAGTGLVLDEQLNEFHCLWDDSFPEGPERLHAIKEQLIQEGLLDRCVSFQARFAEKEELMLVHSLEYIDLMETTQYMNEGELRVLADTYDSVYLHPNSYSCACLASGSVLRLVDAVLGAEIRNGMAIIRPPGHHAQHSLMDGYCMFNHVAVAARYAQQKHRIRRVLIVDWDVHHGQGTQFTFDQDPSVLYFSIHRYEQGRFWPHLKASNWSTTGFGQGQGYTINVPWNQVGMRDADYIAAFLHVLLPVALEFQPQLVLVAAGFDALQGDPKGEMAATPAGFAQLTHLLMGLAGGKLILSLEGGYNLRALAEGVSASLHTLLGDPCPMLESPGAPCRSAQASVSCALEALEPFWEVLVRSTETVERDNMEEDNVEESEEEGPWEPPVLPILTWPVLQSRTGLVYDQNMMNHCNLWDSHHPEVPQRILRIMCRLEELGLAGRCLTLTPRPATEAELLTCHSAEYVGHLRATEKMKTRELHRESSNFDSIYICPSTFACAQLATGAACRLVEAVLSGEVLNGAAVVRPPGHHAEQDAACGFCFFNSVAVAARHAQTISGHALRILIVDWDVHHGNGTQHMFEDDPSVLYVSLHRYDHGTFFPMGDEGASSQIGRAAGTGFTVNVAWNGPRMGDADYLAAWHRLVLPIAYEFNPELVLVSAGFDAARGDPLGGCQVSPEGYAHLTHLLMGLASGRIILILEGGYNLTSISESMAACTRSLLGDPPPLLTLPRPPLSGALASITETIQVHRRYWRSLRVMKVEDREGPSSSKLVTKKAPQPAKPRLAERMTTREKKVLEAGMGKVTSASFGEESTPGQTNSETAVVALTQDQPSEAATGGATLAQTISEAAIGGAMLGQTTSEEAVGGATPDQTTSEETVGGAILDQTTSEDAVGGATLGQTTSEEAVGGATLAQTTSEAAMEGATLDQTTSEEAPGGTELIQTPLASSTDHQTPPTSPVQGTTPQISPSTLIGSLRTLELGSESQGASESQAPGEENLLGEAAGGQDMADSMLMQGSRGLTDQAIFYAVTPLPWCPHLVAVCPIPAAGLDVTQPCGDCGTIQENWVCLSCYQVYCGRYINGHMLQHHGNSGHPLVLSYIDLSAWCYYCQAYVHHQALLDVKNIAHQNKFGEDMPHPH
Description: Fluor de Lys fluorescence deacetylase inhibition assay on HDAC6

HDAC4 = target: T8, HDAC4 (Homo sapiens, UniProt P56524)
T8 construct: enzyme of BPS Bioscience contract assay
Description: Fluor de Lys fluorescence deacetylase inhibition assay on HDAC4

HDAC9 = target: T9, HDAC9 (Homo sapiens, UniProt Q9UKV0)
T9 construct: enzyme of BPS Bioscience contract assay
Description: Fluor de Lys fluorescence deacetylase inhibition assay on HDAC9

HDAC2 = target: T10, HDAC2 (Homo sapiens, UniProt Q92769)
T10 construct: enzyme of BPS Bioscience contract assay
Description: Fluor de Lys fluorescence deacetylase inhibition assay on HDAC2

T10 sequence (Q92769 whole entry): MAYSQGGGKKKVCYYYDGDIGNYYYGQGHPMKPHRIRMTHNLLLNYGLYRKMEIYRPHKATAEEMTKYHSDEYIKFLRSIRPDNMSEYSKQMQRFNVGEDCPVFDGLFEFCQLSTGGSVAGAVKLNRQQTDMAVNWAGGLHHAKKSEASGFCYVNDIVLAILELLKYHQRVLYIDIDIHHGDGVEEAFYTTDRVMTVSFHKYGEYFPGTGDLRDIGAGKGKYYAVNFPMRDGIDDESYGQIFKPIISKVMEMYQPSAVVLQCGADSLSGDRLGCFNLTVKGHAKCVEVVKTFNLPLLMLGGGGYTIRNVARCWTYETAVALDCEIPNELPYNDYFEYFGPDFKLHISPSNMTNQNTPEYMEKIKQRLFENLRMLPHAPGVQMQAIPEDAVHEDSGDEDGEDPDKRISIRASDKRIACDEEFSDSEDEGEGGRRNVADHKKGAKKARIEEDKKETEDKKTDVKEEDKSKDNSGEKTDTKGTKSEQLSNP
T4 sequence (Q9UQL6 whole entry): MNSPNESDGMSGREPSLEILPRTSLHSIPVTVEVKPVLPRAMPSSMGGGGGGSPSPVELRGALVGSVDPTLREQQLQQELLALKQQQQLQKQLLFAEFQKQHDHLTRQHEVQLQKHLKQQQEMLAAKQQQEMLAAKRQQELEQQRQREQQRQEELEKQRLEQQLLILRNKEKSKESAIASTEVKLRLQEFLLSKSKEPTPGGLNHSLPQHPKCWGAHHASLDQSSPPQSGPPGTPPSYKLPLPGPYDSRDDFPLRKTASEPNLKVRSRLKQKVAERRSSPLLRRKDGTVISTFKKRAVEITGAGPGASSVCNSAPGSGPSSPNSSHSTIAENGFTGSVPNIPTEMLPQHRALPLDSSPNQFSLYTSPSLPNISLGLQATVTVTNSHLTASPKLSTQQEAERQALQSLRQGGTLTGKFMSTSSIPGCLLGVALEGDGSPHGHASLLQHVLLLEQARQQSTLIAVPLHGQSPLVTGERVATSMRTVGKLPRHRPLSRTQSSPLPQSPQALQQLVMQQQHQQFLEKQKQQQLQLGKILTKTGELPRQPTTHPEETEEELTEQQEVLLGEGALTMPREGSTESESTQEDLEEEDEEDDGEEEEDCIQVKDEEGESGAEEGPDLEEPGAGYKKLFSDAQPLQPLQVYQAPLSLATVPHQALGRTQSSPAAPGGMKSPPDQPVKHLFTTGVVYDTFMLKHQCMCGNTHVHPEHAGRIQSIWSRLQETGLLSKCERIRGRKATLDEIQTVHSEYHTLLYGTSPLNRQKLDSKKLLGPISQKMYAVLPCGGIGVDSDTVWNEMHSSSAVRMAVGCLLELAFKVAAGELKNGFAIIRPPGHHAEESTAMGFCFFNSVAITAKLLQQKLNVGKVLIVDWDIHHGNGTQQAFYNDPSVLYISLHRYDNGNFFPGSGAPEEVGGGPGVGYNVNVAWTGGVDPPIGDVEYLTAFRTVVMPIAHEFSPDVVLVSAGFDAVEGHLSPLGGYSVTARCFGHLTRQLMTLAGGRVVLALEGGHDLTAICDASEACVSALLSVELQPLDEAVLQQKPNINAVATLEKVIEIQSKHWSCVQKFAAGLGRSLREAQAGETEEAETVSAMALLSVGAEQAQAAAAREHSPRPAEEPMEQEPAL
T8 sequence (P56524 627-1084 limits assumed): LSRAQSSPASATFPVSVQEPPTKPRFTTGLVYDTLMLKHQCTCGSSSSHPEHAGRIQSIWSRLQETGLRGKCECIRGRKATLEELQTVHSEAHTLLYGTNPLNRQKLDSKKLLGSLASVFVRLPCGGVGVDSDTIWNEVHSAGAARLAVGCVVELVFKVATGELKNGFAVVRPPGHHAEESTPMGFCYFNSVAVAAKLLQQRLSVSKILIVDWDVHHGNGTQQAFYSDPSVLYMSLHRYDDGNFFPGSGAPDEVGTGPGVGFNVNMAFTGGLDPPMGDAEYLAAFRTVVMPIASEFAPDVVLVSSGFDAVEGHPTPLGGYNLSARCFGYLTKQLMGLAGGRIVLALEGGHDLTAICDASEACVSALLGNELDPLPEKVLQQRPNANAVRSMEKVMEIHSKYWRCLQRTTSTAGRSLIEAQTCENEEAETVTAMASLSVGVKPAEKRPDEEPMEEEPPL
T9 sequence (Q9UKV0 whole entry): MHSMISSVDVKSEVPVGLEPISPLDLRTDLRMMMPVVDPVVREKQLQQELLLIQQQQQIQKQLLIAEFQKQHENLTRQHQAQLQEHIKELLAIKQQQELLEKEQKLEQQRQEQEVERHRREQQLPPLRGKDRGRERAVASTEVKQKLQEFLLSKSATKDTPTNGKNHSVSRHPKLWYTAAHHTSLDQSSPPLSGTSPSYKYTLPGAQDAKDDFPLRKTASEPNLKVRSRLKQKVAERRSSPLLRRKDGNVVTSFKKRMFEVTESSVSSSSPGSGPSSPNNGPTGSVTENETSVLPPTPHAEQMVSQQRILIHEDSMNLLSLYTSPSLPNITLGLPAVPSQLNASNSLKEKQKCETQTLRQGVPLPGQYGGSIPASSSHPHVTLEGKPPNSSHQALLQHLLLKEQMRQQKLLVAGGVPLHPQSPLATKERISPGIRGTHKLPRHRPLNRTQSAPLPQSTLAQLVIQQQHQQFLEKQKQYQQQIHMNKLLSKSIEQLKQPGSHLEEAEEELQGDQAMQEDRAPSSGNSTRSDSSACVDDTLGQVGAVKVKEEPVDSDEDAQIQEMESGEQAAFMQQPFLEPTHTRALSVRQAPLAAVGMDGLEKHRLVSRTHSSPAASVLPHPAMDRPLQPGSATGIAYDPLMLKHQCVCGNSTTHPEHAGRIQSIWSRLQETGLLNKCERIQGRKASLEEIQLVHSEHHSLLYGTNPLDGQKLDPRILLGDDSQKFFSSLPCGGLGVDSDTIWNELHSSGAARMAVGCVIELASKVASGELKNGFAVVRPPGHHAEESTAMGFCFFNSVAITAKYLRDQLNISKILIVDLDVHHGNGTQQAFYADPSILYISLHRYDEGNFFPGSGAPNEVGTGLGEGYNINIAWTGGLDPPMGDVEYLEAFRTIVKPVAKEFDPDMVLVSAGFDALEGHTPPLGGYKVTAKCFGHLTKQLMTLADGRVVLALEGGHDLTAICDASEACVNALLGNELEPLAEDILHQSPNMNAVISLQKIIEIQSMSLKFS
T5 sequence (Q13547 whole entry): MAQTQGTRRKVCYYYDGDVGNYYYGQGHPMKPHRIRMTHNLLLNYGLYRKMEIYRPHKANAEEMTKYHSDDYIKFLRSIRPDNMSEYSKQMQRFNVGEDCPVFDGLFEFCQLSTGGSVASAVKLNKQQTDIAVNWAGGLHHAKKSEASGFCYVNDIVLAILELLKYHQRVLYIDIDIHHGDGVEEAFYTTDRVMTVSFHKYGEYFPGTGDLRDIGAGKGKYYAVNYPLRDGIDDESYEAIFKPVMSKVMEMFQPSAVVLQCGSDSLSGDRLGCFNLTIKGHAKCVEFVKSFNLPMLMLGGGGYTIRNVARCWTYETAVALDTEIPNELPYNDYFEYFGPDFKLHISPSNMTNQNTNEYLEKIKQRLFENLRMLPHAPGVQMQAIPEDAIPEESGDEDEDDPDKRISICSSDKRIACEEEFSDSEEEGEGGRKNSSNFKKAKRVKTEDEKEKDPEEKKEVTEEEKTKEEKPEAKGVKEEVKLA

## CC[C@H]1OC(=O)[C@H](C)[C@@H](O[C@H]2C[C@@](C)(OC)[C@@H](O)[C@H](C)O2)[C@H](C)[C@@H](O[C@@H]2O[C@H](C)C[C@H](N(C)Cc3ccc(-c4cn(CCCCCCC(=O)NO)nn4)cc3)[C@H]2O)[C@](C)(O)C[C@@H](C)CN(C)[C@H](C)[C@@H](O)[C@]1(C)O [compound 1]
HDAC8
  IC50: 839 nM
HDAC11
  IC50: 7360 nM
HDAC7
  IC50: 2620 nM
HDAC5
  IC50: 1770 nM
HDAC1
  IC50: 2.7 nM
HDAC10
  IC50: 4.5 nM
HDAC6
  IC50: 1.7 nM
HDAC4
  IC50: 1900 nM
HDAC9
  IC50: 6910 nM
HDAC2
  IC50: 8.1 nM

Reference: PMC7690782, “Liver-Targeting Class I Selective Histone Deacetylase Inhibitors Potently Suppress Hepatocellular Tumor Growth as Standalone Agents” (Cancers, 2020)
